Tests used:
Set-up in all cases: scale not given here
[1] = system: CHEAL Lambsquarters, Common; experiment: Postemergence herbicidal evaluation, CHEAL; assay type: in vivo, Chenopodium album, L.; conditions: postemergence spray, rated about two-three weeks after treatment
How it was run: (§1)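 Two-week-old seedlings sprayed postemergence with compound in 80/20 acetone/water plus 1.0% methylated seed oil, at about 0.006–0.400 kg/ha, through a nozzle at 40 psi. Plants kept under greenhouse conditions and visually rated about two–three weeks after treatment; ratings from repeat tests averaged.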

[2] = system: IPOHE Morningglory, Ivyleaf; experiment: Preemergence herbicidal evaluation, IPOHE; assay type: in vivo, Ipomoea hederacea, (L.) Jacq.; conditions: preemergence
How it was run: (§2)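 Preemergence soil spray: aqueous acetone, ~0.013–0.800 kg/ha, applied right after sowing (seed/potting-soil mix over ~1 in soil). Greenhouse, routine watering. Scored 4–5 wk post-treatment on a rating scale.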

ORYSAT Rice, Tebonnet [3] = experiment: Postemergence herbicidal evaluation, ORYSAT; assay type: in vivo, Oryza sativa, (L.); conditions: postemergence spray, rated about two-three weeks after treatment
How it was run: as §1

ORYSAT Rice, Tebonnet [4] = experiment: Preemergence herbicidal evaluation, ORYSAT; assay type: in vivo, Oryza sativa, (L.); conditions: preemergence
How it was run: as §2

ABUTH Velvetleaf [5] = experiment: Postemergence herbicidal evaluation, ABUTH; assay type: in vivo, Abutilon theophrasti, Medic.; conditions: postemergence spray, rated about two-three weeks after treatment
How it was run: as §1

ABUTH Velvetleaf [6] = experiment: Preemergence herbicidal evaluation, ABUTH; assay type: in vivo, Abutilon theophrasti, Medic.; conditions: preemergence
How it was run: as §2

ZEAMX Corn, Field [7] = experiment: Preemergence herbicidal evaluation, ZEAMX; assay type: in vivo, Zea mays, L. (Sammel-Bezeichnung); conditions: preemergence
How it was run: as §2

GALAP Galium [8] = experiment: Postemergence herbicidal evaluation, GALAP; assay type: in vivo, Galium aparine; conditions: postemergence spray, rated about two-three weeks after treatment
How it was run: as §1

CASOB Sicklepod [9] = experiment: Postemergence herbicidal evaluation, CASOB; assay type: in vivo, Cassia obtusifolia, L.; conditions: postemergence spray, rated about two-three weeks after treatment
How it was run: as §1

GLXMAW Soybean, Williams [10] = experiment: Preemergence herbicidal evaluation, GLXMAW; assay type: in vivo, Glycine max, (L.) Merr. cv Williams; conditions: preemergence
How it was run: as §2

CASOB Sicklepod [11] = experiment: Preemergence herbicidal evaluation, CASOB; assay type: in vivo, Cassia obtusifolia, L.; conditions: preemergence
How it was run: as §2

GLXMAW Soybean, Williams [12] = experiment: Postemergence herbicidal evaluation, GLXMAW; assay type: in vivo, Glycine max, (L.) Merr. cv Williams; conditions: postemergence spray, rated about two-three weeks after treatment
How it was run: as §1

SETVI Foxtail, Green [13] = experiment: Postemergence herbicidal evaluation, SETVI; assay type: in vivo, Setaria viridis, (L.) Beau; conditions: postemergence spray, rated about two-three weeks after treatment
How it was run: as §1

ZEAMX Corn, Field [14] = experiment: Postemergence herbicidal evaluation, ZEAMX; assay type: in vivo, Zea mays, L. (Sammel-Bezeichnung); conditions: postemergence spray, rated about two-three weeks after treatment
How it was run: as §1

[15] = system: IPOHE Morningglory, Ivyleaf; experiment: Postemergence herbicidal evaluation, IPOHE; assay type: in vivo, Ipomoea hederacea, (L.) Jacq.; conditions: postemergence spray, rated about two-three weeks after treatment
How it was run: as §1

AMBEL Ragweed, Common [16] = experiment: Preemergence herbicidal evaluation, AMBEL; assay type: in vivo, Ambrosia artemisifolia, L.; conditions: preemergence
How it was run: as §2

GALAP Galium [17] = experiment: Preemergence herbicidal evaluation, GALAP; assay type: in vivo, Galium aparine; conditions: preemergence
How it was run: as §2

ECHOG Barnyardgrass [18] = experiment: Postemergence herbicidal evaluation, ECHOG; assay type: in vivo, Echinochloa crus-galli, (L.) Beau; conditions: postemergence spray, rated about two-three weeks after treatment
How it was run: as §1

SETVI Foxtail, Green [19] = experiment: Preemergence herbicidal evaluation, SETVI; assay type: in vivo, Setaria viridis, (L.) Beau; conditions: preemergence
How it was run: as §2

[20] = system: CHEAL Lambsquarters, Common; experiment: Preemergence herbicidal evaluation, CHEAL; assay type: in vivo, Chenopodium album, L.; conditions: preemergence
How it was run: as §2

[21] = system: TRZAWR Wheat, Winter, cv Riband; experiment: Preemergence herbicidal evaluation, TRZAWR; assay type: in vivo, Triticum aestivum; conditions: preemergence
How it was run: as §2

[22] = system: TRZAWR Wheat, Winter, cv Riband; experiment: Postemergence herbicidal evaluation, TRZAWR; assay type: in vivo, Triticum aestivum; conditions: postemergence spray, rated about two-three weeks after treatment
How it was run: as §1

AMBEL Ragweed, Common [23] = experiment: Postemergence herbicidal evaluation, AMBEL; assay type: in vivo, Ambrosia artemisifolia, L.; conditions: postemergence spray, rated about two-three weeks after treatment
How it was run: as §1

ECHOG Barnyardgrass [24] = experiment: Preemergence herbicidal evaluation, ECHOG; assay type: in vivo, Echinochloa crus-galli, (L.) Beau; conditions: preemergence
How it was run: as §2

CC(C)c1ccc(-n2nnc3cc(F)c(-n4c(=O)cc(C(F)(F)F)n(C)c4=O)cc32)cc1 [Example 21]
1.0: ZEAMX herbicidal rating (ZEAMX Corn, Field [7]; rate 0.062 kg/ha) | Postemergence herbicidal rating CASOB (CASOB Sicklepod [9]; 0.032 kg/ha) | GLXMAW herbicidal rating (GLXMAW Soybean, Williams [10]; rate 0.125 kg/ha) | TRZAWR herbicidal rating ([21]; rate 0.125 kg/ha) | ECHCG herbicidal rating (ECHOG Barnyardgrass [24]; rate 0.062 kg/ha)
8.0: Postemergence herbicidal rating CHEAL ([1]; 0.008 kg/ha)
5.0: Postemergence herbicidal rating GLXMAW (GLXMAW Soybean, Williams [12]; 0.016 kg/ha) | Postemergence herbicidal rating SETVI (SETVI Foxtail, Green [13]; 0.032 kg/ha) | Postemergence herbicidal rating SETVI (SETVI Foxtail, Green [13]; 0.062 kg/ha) | Postemergence herbicidal rating ZEAMX (ZEAMX Corn, Field [14]; 0.062 kg/ha)
3.5: IPOHE herbicidal rating ([2]; rate 0.125 kg/ha) | Postemergence herbicidal rating ORYSAT (ORYSAT Rice, Tebonnet [3]; 0.016 kg/ha) | Postemergence herbicidal rating ORYSAT (ORYSAT Rice, Tebonnet [3]; 0.032 kg/ha) | Postemergence herbicidal rating ORYSAT (ORYSAT Rice, Tebonnet [3]; 0.062 kg/ha) | ZEAMX herbicidal rating (ZEAMX Corn, Field [7]; rate 0.125 kg/ha) | AMBEL herbicidal rating (AMBEL Ragweed, Common [16]; rate 0.062 kg/ha) | Postemergence herbicidal rating TRZAWR ([22]; 0.008 kg/ha) | ECHCG herbicidal rating (ECHOG Barnyardgrass [24]; rate 0.125 kg/ha)
2.0: IPOHE herbicidal rating ([2]; rate 0.062 kg/ha) | Postemergence herbicidal rating GALAP (GALAP Galium [8]; 0.008 kg/ha) | Postemergence herbicidal rating CASOB (CASOB Sicklepod [9]; 0.062 kg/ha) | CASOB herbicidal rating (CASOB Sicklepod [11]; rate 0.125 kg/ha) | SETVI herbicidal rating (SETVI Foxtail, Green [19]; rate 0.032 kg/ha) | Postemergence herbicidal rating AMBEL (AMBEL Ragweed, Common [23]; 0.008 kg/ha)
0.0: IPOHE herbicidal rating ([2]; rate 0.016 kg/ha) | ORYSAT herbicidal rating (ORYSAT Rice, Tebonnet [4]; rate 0.016 kg/ha) | ORYSAT herbicidal rating (ORYSAT Rice, Tebonnet [4]; rate 0.032 kg/ha) | ORYSAT herbicidal rating (ORYSAT Rice, Tebonnet [4]; rate 0.062 kg/ha) | ORYSAT herbicidal rating (ORYSAT Rice, Tebonnet [4]; rate 0.125 kg/ha) | ABUTH herbicidal rating (ABUTH Velvetleaf [6]; rate 0.016 kg/ha) | ZEAMX herbicidal rating (ZEAMX Corn, Field [7]; rate 0.016 kg/ha) | ZEAMX herbicidal rating (ZEAMX Corn, Field [7]; rate 0.032 kg/ha) | Postemergence herbicidal rating CASOB (CASOB Sicklepod [9]; 0.008 kg/ha) | Postemergence herbicidal rating CASOB (CASOB Sicklepod [9]; 0.016 kg/ha) | GLXMAW herbicidal rating (GLXMAW Soybean, Williams [10]; rate 0.016 kg/ha) | GLXMAW herbicidal rating (GLXMAW Soybean, Williams [10]; rate 0.032 kg/ha) | CASOB herbicidal rating (CASOB Sicklepod [11]; rate 0.016 kg/ha) | CASOB herbicidal rating (CASOB Sicklepod [11]; rate 0.032 kg/ha) | Postemergence herbicidal rating SETVI (SETVI Foxtail, Green [13]; 0.008 kg/ha) | Postemergence herbicidal rating SETVI (SETVI Foxtail, Green [13]; 0.016 kg/ha) | AMBEL herbicidal rating (AMBEL Ragweed, Common [16]; rate 0.016 kg/ha) | GALAP herbicidal rating (GALAP Galium [17]; rate 0.016 kg/ha) | GALAP herbicidal rating (GALAP Galium [17]; rate 0.032 kg/ha) | GALAP herbicidal rating (GALAP Galium [17]; rate 0.062 kg/ha) | GALAP herbicidal rating (GALAP Galium [17]; rate 0.125 kg/ha) | Postemergence herbicidal rating ECHCG (ECHOG Barnyardgrass [18]; 0.008 kg/ha) | Postemergence herbicidal rating ECHCG (ECHOG Barnyardgrass [18]; 0.016 kg/ha) | Postemergence herbicidal rating ECHCG (ECHOG Barnyardgrass [18]; 0.032 kg/ha) | Postemergence herbicidal rating ECHCG (ECHOG Barnyardgrass [18]; 0.062 kg/ha) | SETVI herbicidal rating (SETVI Foxtail, Green [19]; rate 0.016 kg/ha) | TRZAWR herbicidal rating ([21]; rate 0.016 kg/ha) | TRZAWR herbicidal rating ([21]; rate 0.032 kg/ha) | TRZAWR herbicidal rating ([21]; rate 0.062 kg/ha) | ECHCG herbicidal rating (ECHOG Barnyardgrass [24]; rate 0.016 kg/ha) | ECHCG herbicidal rating (ECHOG Barnyardgrass [24]; rate 0.032 kg/ha)
0.5: GLXMAW herbicidal rating (GLXMAW Soybean, Williams [10]; rate 0.062 kg/ha)
7.5: AMBEL herbicidal rating (AMBEL Ragweed, Common [16]; rate 0.125 kg/ha)
6.0: ABUTH herbicidal rating (ABUTH Velvetleaf [6]; rate 0.062 kg/ha) | Postemergence herbicidal rating IPOHE ([15]; 0.032 kg/ha)
6.5: SETVI herbicidal rating (SETVI Foxtail, Green [19]; rate 0.062 kg/ha)
9.0: Postemergence herbicidal rating CHEAL ([1]; 0.032 kg/ha) | Postemergence herbicidal rating CHEAL ([1]; 0.062 kg/ha) | Postemergence herbicidal rating ABUTH (ABUTH Velvetleaf [5]; 0.008 kg/ha) | Postemergence herbicidal rating ABUTH (ABUTH Velvetleaf [5]; 0.016 kg/ha) | Postemergence herbicidal rating ABUTH (ABUTH Velvetleaf [5]; 0.032 kg/ha) | Postemergence herbicidal rating ABUTH (ABUTH Velvetleaf [5]; 0.062 kg/ha) | ABUTH herbicidal rating (ABUTH Velvetleaf [6]; rate 0.125 kg/ha) | Postemergence herbicidal rating GALAP (GALAP Galium [8]; 0.062 kg/ha) | Postemergence herbicidal rating IPOHE ([15]; 0.008 kg/ha) | Postemergence herbicidal rating IPOHE ([15]; 0.016 kg/ha) | Postemergence herbicidal rating IPOHE ([15]; 0.062 kg/ha) | SETVI herbicidal rating (SETVI Foxtail, Green [19]; rate 0.125 kg/ha) | CHEAL herbicidal rating ([20]; rate 0.016 kg/ha) | CHEAL herbicidal rating ([20]; rate 0.032 kg/ha) | CHEAL herbicidal rating ([20]; rate 0.062 kg/ha) | CHEAL herbicidal rating ([20]; rate 0.125 kg/ha) | Postemergence herbicidal rating AMBEL (AMBEL Ragweed, Common [23]; 0.016 kg/ha) | Postemergence herbicidal rating AMBEL (AMBEL Ragweed, Common [23]; 0.032 kg/ha) | Postemergence herbicidal rating AMBEL (AMBEL Ragweed, Common [23]; 0.062 kg/ha)
4.0: Postemergence herbicidal rating CHEAL ([1]; 0.016 kg/ha) | Postemergence herbicidal rating GALAP (GALAP Galium [8]; 0.016 kg/ha) | Postemergence herbicidal rating GALAP (GALAP Galium [8]; 0.032 kg/ha) | Postemergence herbicidal rating TRZAWR ([22]; 0.016 kg/ha) | Postemergence herbicidal rating TRZAWR ([22]; 0.032 kg/ha) | Postemergence herbicidal rating TRZAWR ([22]; 0.062 kg/ha)
4.5: ABUTH herbicidal rating (ABUTH Velvetleaf [6]; rate 0.032 kg/ha) | Postemergence herbicidal rating GLXMAW (GLXMAW Soybean, Williams [12]; 0.008 kg/ha) | Postemergence herbicidal rating ZEAMX (ZEAMX Corn, Field [14]; 0.008 kg/ha) | Postemergence herbicidal rating ZEAMX (ZEAMX Corn, Field [14]; 0.016 kg/ha) | Postemergence herbicidal rating ZEAMX (ZEAMX Corn, Field [14]; 0.032 kg/ha)
1.5: IPOHE herbicidal rating ([2]; rate 0.032 kg/ha) | CASOB herbicidal rating (CASOB Sicklepod [11]; rate 0.062 kg/ha)
3.0: Postemergence herbicidal rating ORYSAT (ORYSAT Rice, Tebonnet [3]; 0.008 kg/ha) | AMBEL herbicidal rating (AMBEL Ragweed, Common [16]; rate 0.032 kg/ha)
5.5: Postemergence herbicidal rating GLXMAW (GLXMAW Soybean, Williams [12]; 0.032 kg/ha) | Postemergence herbicidal rating GLXMAW (GLXMAW Soybean, Williams [12]; 0.062 kg/ha)

From US20020111274A1, “1-alkyl-3-[1-(substituted phenyl) benzotriazol-6-yl] uracils” (BASF Aktiengesellschaft, priority 2000, published 2002)
